# Experimental data as given in publication PMC6476926, “Dichloro-Phenyl-Benzotriazoles: A New Selective Class of Human Respiratory Syncytial Virus Entry Inhibitors” (Frontiers in Chemistry, 2019).
# Entries after “also recorded” stand apart in the source; their conditions may differ.
# How the values were obtained:
# [1] = tested on: RSV; experiment: microbe, parasite or virus in culture; assay type: cell-based, Human Respiratory Syncytial Virus (RSV) strain A2; settings: human respiratory syncytial virus, Vero 76, read-out: EC50 RSV
# [2] = tested on: RSV A2; experiment: Immunofluorescence attachment assay; assay type: cell-based, Human Respiratory Syncytial Virus (RSV); settings: 4°C, Vero-76; 20 μM 10d, 6 μg/mL dextran sulfate, 5 μM 6-azauridine
# Protocol: Compounds' inhibitory effects on virus-cell binding event was measured by immunofluorescence performed according to the method described previously with some modifications (Maric et al., [2011]). […] After this incubation period, the monolayers were washed three times in cold PBS in order to remove unbound viral particles and then were fixed in paraformaldehyde 4%. The presence of bound virus was detected by indirect immunofluorescence. […] Abcam, Cambridge, United Kingdom). Cells were then washed three times in PBS-Tween-100 and incubated with a 1:500 dilution of an Alexa Fluor 488-labeled anti-mouse secondary antibody (Molecular Probes, Eugene, Oreg.). After a series of washes in PBS-Tween-100, cells were mounted with Vectashield (Vector Laboratories, Burlingame, CA) containing 4′,6-diamidino-2-phenylindole (DAPI) and images of each well were captured with the ZOE Fluorescent Cell Imager (Biorad).
# [3] = Cytotoxicity, MTT method, Vero-76 cells; settings: African green monkey (Cercopithecus aethiops)
# [4] = tested on: HIV-1IIIB; experiment: microbe, parasite or virus in culture; assay type: cell-based, Human Immunodeficiency Virus type-1 (HIV-1); settings: Human immunodeficiency virus 1, MT4, read-out: EC50 HIV-1IIIB
# [5] = tested on: BVDV; experiment: microbe, parasite or virus in culture; assay type: cell-based; settings: Bovine viral diarrhea virus isolates and strains, MDBK, read-out: EC50 BVDV
# [6] = tested on: YFV; experiment: microbe, parasite or virus in culture; assay type: cell-based; settings: Yellow fever virus, BHK, read-out: EC50 YFV
# [7] = tested on: Reo-1; experiment: microbe, parasite or virus in culture; assay type: cell-based, Reovirus type-1 (Reo-1); settings: Reovirus sp., BHK, read-out: EC50 Reo-1
# [8] = tested on: CV-B5; experiment: microbe, parasite or virus in culture; assay type: cell-based, Human Enterovirus B [coxsackie type B5 (CV-B5)]; settings: Enterovirus B, CVB5, Vero 76, read-out: EC50 CV-B5
# [9] = tested on: Sb-1, VSV, VV, HSV-1; experiment: organism not typed; assay type: cell-based; settings: Vero 76, read-out: EC50 Sb-1, VSV, VV, HSV-1
# [10] = tested on: RSV strain B1 cp-52; experiment: microbe, parasite or virus in culture; assay type: cell-based; settings: human respiratory syncytial virus, Vero 76, read-out: 50% inhibitory concentration RSV cp-52
# [11] = in vitro; settings: cattle (Bos taurus)
# [12] = Cytotoxicity, MTT method, BHK cells; settings: Syrian hamster (Mesocricetus auratus)
# [13] = Cytotoxicity, MTT method, MT-4 cells; settings: human
Compound,EC50 [1],inhibition of viral attachment [2],CC50 at 5 days [3],EC50 [4],EC50 [5],EC50 [6],EC50 [7],EC50 [8],EC50 [9],IC50 [10],melting point,CC50 [11],CC50 [12],CC50 [13]
"O=c1cnn([C@@H]2O[C@H](CO)[C@@H](O)[C@H]2O)c(=O)[nH]1 [6-azauridine, reference compound]",1.4 µM,not able to block viral binding,≥ 14 µM,,,,,,,,,,,
"COc1cc(C(=O)Nc2ccc(-n3nc4cc(Cl)c(Cl)cc4n3)cc2)cc(OC)c1OC [8d, N-[4-(5,6-dichloro-2H-benzo[d][1,2,3]triazol-2-yl)phenyl]-3,4,5-trimethoxybenzamide]",3 µM,,80 µM,> 63 µM,35 µM,> 35 µM,> 35 µM,> 80 µM,> 80 µM,10 ± 2 µM,199 to 201 °C,> 100 µM,35 µM,63 µM
"CCCNC(=O)Nc1ccc(-n2nc3cc(Cl)c(Cl)cc3n2)cc1 [10b, 1-[4-(5,6-dichloro-2H-benzo[d][1,2,3]triazol-2-yl)phenyl]-3-propylurea]",3 µM,,30 µM,> 100 µM,> 78 µM,> 40 µM,> 40 µM,> 30 µM,> 30 µM,7 ± 1 µM,> 300 °C,78 µM,40 µM,> 100 µM
"O=C(NCc1ccccc1)Nc1ccc(-n2nc3cc(Cl)c(Cl)cc3n2)cc1 [10j, 1-[4-(5,6-dichloro-2H-benzo[d][1,2,3]triazol-2-yl)phenyl]-3-benzylurea]",> 100 µM,,> 100 µM,> 100 µM,> 100 µM,> 100 µM,> 100 µM,> 100 µM,> 100 µM,,> 290 °C,> 100 µM,> 100 µM,> 100 µM
"O=C(Nc1ccc(-n2nc3cc(Cl)c(Cl)cc3n2)cc1)Nc1cccc2ccccc12 [10k, 1-[4-(5,6-dichloro-2H-benzo[d][1,2,3]triazol-2-yl)phenyl]-3-naphtylurea]",> 100 µM,,> 100 µM,> 100 µM,> 100 µM,> 100 µM,> 100 µM,> 100 µM,> 100 µM,,> 290 °C,> 100 µM,> 100 µM,> 100 µM
dextran sulfate [reference compound],,inhibits viral attachment; also recorded: efficiently blocked viral attachment,,,,,,,,,,,,
